The text below walks through data of ChEMBL document CHEMBL5505986, “Design, synthesis and biological evaluation of thiazolyl-halogenated pyrroles or pyrazoles as novel antibacterial and antibiofilm agents” (Eur J Med Chem, 2024).

Converted amounts (≈) assume the structure as drawn. The source made the active and inactive calls. The rule behind the calls is not given here.

The subject of assay [1] is Staphylococcus aureus. The assay can be described thus: Antibacterial activity against vancomycin-intermediate resistant Staphylococcus aureus ATCC 700699/Mu50 assessed as reduction in bacterial growth incubated for 24 hrs by broth microdilution method. It counts as functional. A general note: Broth dilution looks for growth in wells or tubes with falling amounts of substance.

In the next assay the test system is Streptococcus pyogenes. As to the kind of experiment: Antibacterial activity against Streptococcus pyogenes ATCC 12204 assessed as reduction in bacterial growth incubated for 24 hrs by broth microdilution method. The format is functional.
Assay [2] has as its system Enterococcus faecium. As to the kind of experiment: Antibacterial activity against clinical isolate Enterococcus faecium assessed as reduction in bacterial growth incubated for 24 hrs by broth microdilution method. The format is functional.
For assay [3], the system named is Pseudomonas aeruginosa. The assay can be described thus: Antibacterial activity against Pseudomonas aeruginosa ATCC 47085 assessed as reduction in bacterial growth incubated for 24 hrs by broth microdilution method. The format is functional.
A further assay concerns Klebsiella pneumoniae. As to the kind of experiment: Antibacterial activity against Klebsiella pneumoniae ATCC 13883 assessed as reduction in bacterial growth incubated for 24 hrs by broth microdilution method. The format is functional.
The subject of the next assay is Acinetobacter baumannii. The assay can be described thus: Antibacterial activity against Acinetobacter baumannii ATCC 19606 assessed as reduction in bacterial growth incubated for 24 hrs by broth microdilution method. The format is functional.
The test system of assay [4] is Staphylococcus aureus. As to the kind of experiment: Antibiofilm activity against vancomycin-intermediate resistant Staphylococcus aureus ATCC 700699/Mu50 at sub-MIC doses measured after 24 hrs by crystal violet staining based analysis. The format is functional.
The test system of assay [5] is Enterococcus faecium. The assay can be described thus: Antibiofilm activity against Enterococcus faecium clinical isolate at sub-MIC doses measured after 24 hrs by crystal violet staining based analysis. It counts as functional.
The subject of assay [6] is Pseudomonas aeruginosa. As to the kind of experiment: Antibiofilm activity against Pseudomonas aeruginosa ATCC 47085 at sub-MIC doses measured after 24 hrs by crystal violet staining based analysis. It counts as functional.
In assay [7] the test system is Staphylococcus aureus. The assay can be described thus: Antibiofilm activity against vancomycin-intermediate resistant Staphylococcus aureus ATCC 700699/Mu50 at 1/8 time MIC measured after 24 hrs by crystal violet staining based analysis. The format is functional, organism-based.
The subject of assay [8] is Enterococcus faecium. The assay can be described thus: Antibiofilm activity against Enterococcus faecium clinical isolate at 1/8 times MIC measured after 24 hrs by crystal violet staining based analysis. It counts as functional, organism-based.
The test system of assay [9] is Pseudomonas aeruginosa. The assay can be described thus: Antibiofilm activity against Pseudomonas aeruginosa ATCC 47085 at 8 to 16 ug/ml measured after 24 hrs by crystal violet staining based analysis. The settings on record: dose 8-16 µg/ml. It counts as functional, organism-based.

As a reminder, the MIC is the lowest concentration that inhibits growth of the organism.

For the molecule `Oc1c(Cl)cc(Cl)cc1-c1csc(-c2cc(C(F)(F)F)n[nH]2)n1`, the MIC in the assay on Staphylococcus aureus [1] was 4 µg/mL (≈ 10.5 µM); in the assay on Streptococcus pyogenes, 4 µg/mL (≈ 10.5 µM); in the assay with Enterococcus faecium [2] it was 4 µg/mL (≈ 10.5 µM); in the assay on Pseudomonas aeruginosa [3] it was greater than 256 µg/mL; in the assay with Klebsiella pneumoniae it was greater than 256 µg/mL; with Acinetobacter baumannii, greater than 256 µg/mL. In addition, the Activity with Staphylococcus aureus [4], with Enterococcus faecium [5] and with Pseudomonas aeruginosa [6] was greater than 60% each time. Further, the result in the assay with Staphylococcus aureus [7], in the assay with Enterococcus faecium [8] and with Pseudomonas aeruginosa [9] was Active.
With `O=[N+]([O-])c1cc(-c2nc(-c3cc(Br)cc(Br)c3O)cs2)[nH]n1`, the MIC in the assay on Staphylococcus aureus [1] is 8 µg/mL (≈ 17.9 µM); in the assay with Streptococcus pyogenes, 2 µg/mL (≈ 4.48 µM); with Enterococcus faecium [2] it was 16 µg/mL (≈ 35.9 µM); with Pseudomonas aeruginosa [3], greater than 256 µg/mL; in the assay on Klebsiella pneumoniae, greater than 256 µg/mL; with Acinetobacter baumannii, greater than 256 µg/mL. The Activity with Staphylococcus aureus [4], with Enterococcus faecium [5] and in the assay on Pseudomonas aeruginosa [6] was greater than 60% each time. The result in the assay with Staphylococcus aureus [7], in the assay with Enterococcus faecium [8] and in the assay with Pseudomonas aeruginosa [9] was Active.
As for `Cc1cc(Cl)c(O)c(-c2csc(-c3cc(Cl)c(Cl)[nH]3)n2)c1`, the MIC with Staphylococcus aureus [1], in the assay with Streptococcus pyogenes and in the assay with Enterococcus faecium [2] was greater than 256 µg/mL each time.
On to `COc1c(Cl)cc(Cl)cc1-c1csc(-c2[nH]c(Br)c(Br)c2Br)n1`, for which the MIC in the assay on Staphylococcus aureus [1], with Streptococcus pyogenes and with Enterococcus faecium [2] was greater than 256 µg/mL in each case.
`Oc1c(Br)cc(C(F)(F)F)cc1-c1csc(-c2cc(C(F)(F)F)n[nH]2)n1`: the MIC with Staphylococcus aureus [1] came to 8 µg/mL (≈ 17.5 µM); in the assay on Streptococcus pyogenes it was 16 µg/mL (≈ 34.9 µM); in the assay on Enterococcus faecium [2] it was 8 µg/mL (≈ 17.5 µM).
Take `Oc1c(Br)cc(Br)cc1-c1csc(-c2cc(C(F)(F)F)n[nH]2)n1`: the minimal inhibitory concentration (MIC) in the assay with Staphylococcus aureus [1] is 2 µg/mL (≈ 4.26 µM); in the assay with Streptococcus pyogenes, 4 µg/mL (≈ 8.53 µM); with Enterococcus faecium [2], 4 µg/mL (≈ 8.53 µM); in the assay with Pseudomonas aeruginosa [3], greater than 256 µg/mL; with Klebsiella pneumoniae, greater than 256 µg/mL; with Acinetobacter baumannii, greater than 256 µg/mL. Also, the Activity in the assay on Staphylococcus aureus [4], in the assay with Enterococcus faecium [5] and in the assay with Pseudomonas aeruginosa [6] was greater than 60% throughout. Also, the result in the assay with Staphylococcus aureus [7], in the assay with Enterococcus faecium [8] and in the assay on Pseudomonas aeruginosa [9] was Active.
Take `FC(F)(F)c1cc(Br)cc(-c2csc(-c3[nH]c(Br)c(Br)c3Br)n2)c1`: the values for the MIC in the assay on Staphylococcus aureus [1], in the assay with Streptococcus pyogenes and in the assay with Enterococcus faecium [2] were 16 µg/mL (≈ 26.2 µM), 16 µg/mL (≈ 26.2 µM) and 32 µg/mL (≈ 52.5 µM), respectively.
For `O=[N+]([O-])c1cc(-c2nc(-c3cc(Cl)cc(Cl)c3O)cs2)[nH]n1`, the results for the MIC with Staphylococcus aureus [1], with Streptococcus pyogenes and in the assay with Enterococcus faecium [2] were 128 µg/mL (≈ 358 µM), 8 µg/mL (≈ 22.4 µM) and greater than 256 µg/mL, respectively.
The corresponding values for `Oc1ccccc1-c1csc(-c2cc(Cl)c(Cl)[nH]2)n1` are greater than 256 µg/mL, greater than 256 µg/mL and greater than 256 µg/mL.
Take `Oc1c(F)cc(F)cc1-c1csc(-c2cc(Cl)c(Cl)[nH]2)n1`: the MIC in the assay on Staphylococcus aureus [1], in the assay with Streptococcus pyogenes and in the assay with Enterococcus faecium [2] was greater than 256 µg/mL each time.
With `Oc1c(Br)cc(C(F)(F)F)cc1-c1csc(-c2cc(Br)c(Br)[nH]2)n1`, the minimal inhibitory concentration (MIC) was determined as 1 µg/mL (≈ 1.83 µM) with Staphylococcus aureus [1], 0.5 µg/mL (≈ 0.914 µM) with Streptococcus pyogenes and 2 µg/mL (≈ 3.66 µM) in the assay with Enterococcus faecium [2].
For the molecule POLYMYXIN B, the MIC in the assay with Pseudomonas aeruginosa [3] was found to be 4 µg/mL; in the assay on Klebsiella pneumoniae, 2 µg/mL; in the assay on Acinetobacter baumannii, 2 µg/mL. For the same molecule, the result with Staphylococcus aureus [4], in the assay with Enterococcus faecium [5] and with Pseudomonas aeruginosa [6] was inactive.
